“Also recorded” adds a separate entry of the source.
Target: T1, dialyzed COI1-ASK1 in the presence of JAZ1 (Arabidopsis thaliana, UniProt O04197+Q9LMA8)
T1 sequence (O04197 1-592): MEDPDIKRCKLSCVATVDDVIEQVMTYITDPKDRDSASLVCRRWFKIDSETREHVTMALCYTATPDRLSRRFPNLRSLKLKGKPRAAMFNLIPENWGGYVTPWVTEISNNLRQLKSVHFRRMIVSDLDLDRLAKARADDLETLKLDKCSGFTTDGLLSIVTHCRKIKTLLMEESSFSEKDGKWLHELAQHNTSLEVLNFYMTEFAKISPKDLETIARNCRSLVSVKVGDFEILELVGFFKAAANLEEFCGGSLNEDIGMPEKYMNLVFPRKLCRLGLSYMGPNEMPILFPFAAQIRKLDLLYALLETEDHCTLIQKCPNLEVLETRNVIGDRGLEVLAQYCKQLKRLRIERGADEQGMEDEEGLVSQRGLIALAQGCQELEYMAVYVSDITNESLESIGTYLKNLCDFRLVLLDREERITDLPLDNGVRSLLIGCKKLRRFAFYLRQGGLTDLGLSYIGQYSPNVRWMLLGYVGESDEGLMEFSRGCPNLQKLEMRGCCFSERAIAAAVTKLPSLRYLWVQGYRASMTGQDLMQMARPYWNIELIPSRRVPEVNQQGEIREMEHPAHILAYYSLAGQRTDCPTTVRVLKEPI
T1 sequence (Q39255 1-160 partner): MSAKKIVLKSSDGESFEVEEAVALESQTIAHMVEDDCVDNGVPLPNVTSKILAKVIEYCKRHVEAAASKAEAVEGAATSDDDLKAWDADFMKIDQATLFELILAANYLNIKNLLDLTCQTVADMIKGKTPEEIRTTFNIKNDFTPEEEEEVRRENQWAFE
T1 sequence (Q9LMA8 1-253): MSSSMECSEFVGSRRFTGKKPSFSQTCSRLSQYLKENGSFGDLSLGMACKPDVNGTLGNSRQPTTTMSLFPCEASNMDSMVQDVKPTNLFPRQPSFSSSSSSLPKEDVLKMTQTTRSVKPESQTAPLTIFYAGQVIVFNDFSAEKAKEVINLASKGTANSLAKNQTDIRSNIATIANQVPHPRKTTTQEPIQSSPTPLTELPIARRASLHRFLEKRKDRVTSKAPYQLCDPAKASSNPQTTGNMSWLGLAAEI
Test: inositol phosphate reconstitution assay
Type: binding
Conditions: dialyzed COI1, 100 nM ^3H-coronatine, 1 µM inositol phosphate

Row | SMILES | support of COI1-JAZ1 co-receptor ligand binding activity
1 | O=P(O)(O)O[C@@H]1[C@H](O)[C@H](O)[C@@H](OP(=O)(O)O)[C@H](OP(=O)(O)O)[C@H]1O [inositol (1,4,5) triphosphate] | does not
2 | O=P(O)(O)OC1C(OP(=O)(O)O)C(OP(=O)(O)O)C(OP(=O)(O)O)C(OP(=O)(O)O)C1OP(=O)(O)O (stereo not drawn) [InsP6, inositol hexakisphosphate] | not favorable for activity
3 | O=P(O)(O)O[C@H]1[C@H](OP(=O)(O)O)[C@@H](OP(=O)(O)O)[C@@H](O)[C@@H](O)[C@@H]1OP(=O)(O)O [inositol (1,4,5,6) tetrakisphosphate] | supports the activity; also recorded: support high affinity hormone binding
